Test results as given in patent publication US6087355A, “Cephalosporin antibiotics” (Microcide Pharmaceuticals, Inc., priority 1996, dated 2000).
Where a name gives a salt, the structure may show the parent alone.

What was measured:
Assay in all cases: In vitro MIC, agar dilution
Assay type in all cases: cell-based
[1] = test system: S. aureus ATCC 13709(Meth^S); conditions: Staphylococcus aureus, ATCC13709, S. aureus ATCC 13709(Meth^S); read-out: minimum inhibitory concentration (MIC)
Protocol: (§1) The compounds of the invention were evaluated against several β-lactamresistant (for example methicillin-resistant, vancomycin resistant, and/or ampicillin-resistant) bacteria strains by determining the minimum inhibitory concentration (MIC, μg/ml) of each compound with respect to each strain. The MIC, the lowest concentration of antibiotic which inhibits growth of the test organism, was determined by the agar dilution method.
(§2) To determine the MIC for bacterial isolates, the test compound was incorporated in a series of two-fold dilutions into liquified Mueller-Hinton agar. Upon solidification, a number of different bacterial strains were spot inoculated with a replicating device onto the agar surface.
(§3) Aliquots of antimicrobial agents were prepared in phosphate buffered saline (PBS) at pH 7.2. Tween 20 or DMSO was used as a solubilizing vehicle as needed. Standard methods of vortexing, sonicating and gentle heat were used to facilitate solubilizing the test agent. […] A 1.28 mg/mL stock solution was used with a subsequent highest working concentration of 128 μg/mL. Serial two-fold dilutions were done through ≤0.25 μg/mL. Each drug level was tested in duplicate. Two-fold drug dilutions were done in sterile 50 mL tubes with a final drug volume of 5 mL. Upon the addition of 45 mL of molten agar, a 10-fold dilution resulted. Two, 25 mL. plates were then poured into 15×150 mm square Petri plates with grids and allowed to harden.
(§4) A control plate with a reference drug, either cefotaxime, vancomycin or imipenem, was used as the positive growth control. Stock concentrations of reference antibiotics were prepared and frozen at -80° C. […] All test plates were used within 24 hours of preparation.
(§5) Satisfactory results were obtained where the inoculum contained about 10^4 colony forming units (cfu)±0.5 logs. Starting with pure cultures of the test isolates on agar plates, a few isolated colonies were transferred to a tube of nutrient broth and allowed to grow 4-6 hours at 35-36° C. to reach log-phase growth. Dropwise addition of the broth culture to PBS was done to match a 0.5 McFarland turbidity standard equal to 10^8 cfu/mL. This was further diluted ten-fold in PBS to reach a working inoculum concentration of 10^7 cfu/mL. When 1 μL of the working inoculum was applied to the agar surface a concentration of about 10^4 cfu per spot was obtained.
(§6) Disposable sterile 1 μL loops were used to inoculate test plates, with each isolate in a designated grid on the agar plate. An alternate method of inoculation involved the use of a replica plater, a device with 48 steel pins allowing the simultaneous inoculation of multiple isolates. After the spots had dried, the plates were incubated at 35-36° C. for 16-20 hours. Endpoints were assessed as the minimum inhibitory concentration (MIC) of antimicrobial agent.

E. faecalis VanB(Van^R) = conditions: Enterococcus faecalis, read-out: minimum inhibitory concentration (MIC)
Protocol: as §1, §2, §3, §4, §5, §6

E. coli ATCC 25992 = conditions: Escherichia coli, ATCC25992, read-out: minimum inhibitory concentration (MIC)
Protocol: as §1, §2, §3, §4, §5, §6

E. faecium VanA(Van^R) = conditions: Enterococcus faecium, read-out: minimum inhibitory concentration (MIC)
Protocol: as §1, §2, §3, §4, §5, §6

[2] = test system: S. aureus Spain #356(Meth^R); conditions: Staphylococcus aureus, read-out: minimum inhibitory concentration (MIC)
Protocol: as §1, §2, §3, §4, §5, §6

[3] = test system: S. aureus ATCC 33593(Meth^R); conditions: Staphylococcus aureus, ATCC33593, read-out: minimum inhibitory concentration (MIC)
Protocol: as §1, §2, §3, §4, §5, §6

S. aureus ATCC 29213 = conditions: Staphylococcus aureus, ATCC29213, read-out: minimum inhibitory concentration (MIC)
Protocol: as §1, §2, §3, §4, §5, §6

E. faecalis ATCC 29212 = conditions: Enterococcus faecalis, ATCC29212, read-out: minimum inhibitory concentration (MIC)
Protocol: as §1, §2, §3, §4, §5, §6

[4] = test system: S. aureus 76(Meth^R)(lac^+); conditions: Staphylococcus aureus, read-out: minimum inhibitory concentration (MIC)
Protocol: as §1, §2, §3, §4, §5, §6

[5] = test system: S. aureus PC1(Meth^S)(lac^+); conditions: Staphylococcus aureus, read-out: minimum inhibitory concentration (MIC)
Protocol: as §1, §2, §3, §4, §5, §6

P. aeruginosa ATCC 27853 = conditions: Pseudomonas aeruginosa, ATCC27853, read-out: minimum inhibitory concentration (MIC)
Protocol: as §1, §2, §3, §4, §5, §6

E. faecium ATCC 35667 = conditions: Enterococcus faecium, ATCC35667, read-out: minimum inhibitory concentration (MIC)
Protocol: as §1, §2, §3, §4, §5, §6

[6] = test system: S. haemolyticus 05(Meth^R); conditions: Staphylococcus haemolyticus, read-out: minimum inhibitory concentration (MIC)
Protocol: as §1, §2, §3, §4, §5, §6

E. faecium A491(Amp^R) = conditions: Enterococcus faecium, read-out: minimum inhibitory concentration (MIC)
Protocol: as §1, §2, §3, §4, §5, §6

[7] = test system: S. aureus Col(Meth^R)(lac^-); conditions: Staphylococcus aureus, read-out: minimum inhibitory concentration (MIC)
Protocol: as §1, §2, §3, §4, §5, §6
The S. aureus Col strain is a high-level PBP2a producer, whereas S. aureus Col 8A, its isogenic partner, lacks PBP2a.

N=C(N)SCc1nnsc1SC1=C(C(=O)O)N2C(=O)[C@@H](NC(=O)/C(=N\O)c3csc(N)n3)[C@H]2SC1 [Cmpd 4, (7R)-7-[(Z)-2-(aminothiazol-4-yl)-2-(hydroxyimino)acetamido]-3-(4-isothioureidomethyl-1,2,3-thiadiazol-5-ylthio)-3-cephem-4-carboxylate, trifluoroacetic acid salt]
MIC [1]: 0.25 mg/L
MIC (E. faecalis VanB(Van^R)): 4 mg/L
MIC (E. coli ATCC 25992): 4 mg/L
MIC (E. faecium VanA(Van^R)): 4 mg/L
MIC [2]: 8 mg/L
MIC [3]: 4 mg/L
MIC (S. aureus ATCC 29213): 0.25 mg/L
MIC (E. faecalis ATCC 29212): 0.5 mg/L
MIC [4]: 8 mg/L
MIC [5]: 0.25 mg/L
MIC (P. aeruginosa ATCC 27853): > 32 mg/L
MIC (E. faecium ATCC 35667): 2 mg/L
MIC [6]: 8 mg/L
MIC (E. faecium A491(Amp^R)): > 32 mg/L
MIC [7]: 8 mg/L

N=C(N)SCc1cnccc1SC1=C(C(=O)O)N2C(=O)[C@@H](NC(=O)/C(=N\OC3CCCC3)c3csc(N)n3)[C@H]2SC1 [Cmpd 8, (7R)-7-[(Z)-2-(aminothiazol-4-yl)-2-(cyclopentyloxyimino)acetamido]-3-(3-isothioureidomethylpyrid-4-ylthio)-3-cephem-4-carboxylate, trifluoroacetic acid salt]
MIC [1]: 1 mg/L
MIC (E. faecalis VanB(Van^R)): 0.5 mg/L
MIC (E. coli ATCC 25992): 2 mg/L
MIC (E. faecium VanA(Van^R)): 8 mg/L
MIC [2]: 4 mg/L
MIC [3]: 4 mg/L
MIC (S. aureus ATCC 29213): 1 mg/L
MIC (E. faecalis ATCC 29212): 0.5 mg/L
MIC [4]: 4 mg/L
MIC [5]: 1 mg/L
MIC (P. aeruginosa ATCC 27853): > 32 mg/L
MIC (E. faecium ATCC 35667): 2 mg/L
MIC [6]: 4 mg/L
MIC (E. faecium A491(Amp^R)): 32 mg/L
MIC [7]: 2 mg/L

NCCSCc1cnccc1SC1=C(C(=O)O)N2C(=O)[C@@H](NC(=O)/C(=N\OC3CCCC3)c3csc(N)n3)[C@H]2SC1 [Cmpd 13, (7R)-7-[(Z)-2-(aminothiazol-4-yl)-2-(cyclopentyloxyimino)acetamido]-3-(3-aminoethylthiomethylpyrid-4-ylthio)-3-cephem-4-carboxylate, trifluoroacetic acid salt]
MIC [1]: 2 mg/L
MIC (E. faecalis VanB(Van^R)): 2 mg/L
MIC (E. coli ATCC 25992): 8 mg/L
MIC (E. faecium VanA(Van^R)): 8 mg/L
MIC [2]: 8 mg/L
MIC [3]: 8 mg/L
MIC (S. aureus ATCC 29213): 2 mg/L
MIC (E. faecalis ATCC 29212): 1 mg/L
MIC [4]: 8 mg/L
MIC [5]: 2 mg/L
MIC (P. aeruginosa ATCC 27853): > 32 mg/L
MIC (E. faecium ATCC 35667): 4 mg/L
MIC [6]: 8 mg/L
MIC (E. faecium A491(Amp^R)): > 32 mg/L
MIC [7]: 4 mg/L
